Assays:
[1] = system: methicillin-sensitive Staphylococcus aureus (MSSA); assay: In vitro antibacterial activity, standard agar dilution method, MSSA; assay type: cell-based; details: clinical strains
Excerpt: (§1) Strains for test: methicillin-resistant Staphylococcus aureus (MRSA), methicillin-sensitive Staphylococcus aureus (MSSA), methicillin-resistant Staphylococcus epidermidis (MRSE), methicillin-sensitive Staphylococcus […] (MSSE), Enterococcus faecium, Enterococcus faecalis, streptococcus pneumoniae. Obtained from: Qianfoshan Hospital, First People's Hospital of Yunnan Province, Renji Hospital of Shanghai, People's Hospital of Jilin Province, Southwest Hospital.
(§2) Compounds 1, 3, 4, 6, 8, 11 of the present invention, prepared according to the process in each of the examples.
(§3) Control pharmaceutical: linezolid.
(§4) standard agar dilution method, reference was made to National Committee for Clinical Laboratory Standards. 2006. Methods for Dilution Antimicrobial Susceptibility Tests for Bacteria That Grow Aerobically, Approved Standard—Seventh Edition M7-A7.

[2] = system: methicillin-resistant Staphylococcus epidermidis (MRSE); assay: In vitro antibacterial activity, standard agar dilution method, MRSE; assay type: cell-based; details: clinical strains
Excerpt: as §1, §2, §3, §4

[3] = system: methicillin-sensitive Staphylococcus aureus (MSSE); assay: In vitro antibacterial activity, standard agar dilution method, MSSE; assay type: cell-based, Staphylococcus epidermidis; details: clinical strains
Excerpt: as §1, §2, §3, §4

streptococcus pneumoniae = assay: In vitro antibacterial activity, standard agar dilution method, Streptococcus pneumoniae; assay type: cell-based; details: clinical strains
Excerpt: as §1, §2, §3, §4

Enterococcus faecalis = assay: In vitro antibacterial activity, standard agar dilution method, Enterococcus faecalis; assay type: cell-based; details: clinical strains
Excerpt: as §1, §2, §3, §4

[4] = system: methicillin-resistant Staphylococcus aureus (MRSA); assay: In vitro antibacterial activity, standard agar dilution method, MRSA; assay type: cell-based; details: clinical strains
Excerpt: as §1, §2, §3, §4

Enterococcus faecium = assay: In vitro antibacterial activity, standard agar dilution method, Enterococcus faecium; assay type: cell-based; details: clinical strains
Excerpt: as §1, §2, §3, §4

[5] = In vivo pharmacokinetics test on rat, I.V (intravenous push); details: male SD rat, 0.75 mg/kg, plasma, Compound 3 itself detected
Procedure: (§5) Compounds 2, 3, 5, 7, 9, prepared by the processes in the examples, dissolved in physiological saline.
(§6) Administration is performed as described in the table below, fasting without water deprivation for 16 hours before administration, providing food 4 hours after the administration.
I.V representing administration by intravenous push
(§7) I.V: blood collection was carried out according to the time points in the table below. At each time point about 100 μl whole blood was collected into a heparin sodium anticoagulation tube, centrifuged at 4° C. in a low temperature high speed centrifuge at 8000 rpm for 6 minutes. Plasma was separated and stored frozen in a freezer at −80° C.
(§8) Compound 5, 7, 9: 20 μl plasma was each taken and added into 100 μl of Torezolid (TR-700) solution in methanol at a concentration of 50 ng/ml, mixed under vortex for 5 minutes, centrifuged at 12000 rpm for 5 minutes; 100 μl of supernatant was taken and added into 100 μl water, mixed under vortex for 2 minutes, and analyzed by using LC-MS/MS.
(§9) Compound 2: 20 μl plasma was taken and added into 100 μl of Radezolid solution in methanol at a concentration of 50 ng/ml, mixed under vortex for 3 minutes, centrifuged at 12000 rpm for 5 minutes; 100 μl of supernatant was taken and added into 100 μl water, mixed under vortex for 2 minutes, and analyzed by using LC-MS/MS.
(§10) Compound 3: 20 μl plasma was taken and added into 800 μl of KBP-3957 methyl tert-butyl ether solution at a concentration of 10 ng/ml, mixed under vortex for 10 minutes, centrifuged at 12000 rpm for 5 minutes; 400 μl of supernatant was taken and added into a 96-well plate, purged to dryness by nitrogen, 200 μl of methanol:water (7:3) solution was added, mixed under vortex for 10 minutes, and analyzed by using LC-MS/MS.
(§11) Compound 2 is the prodrug of compound 1. Compound 5 is the prodrug of compound 4. Compound 7 is the prodrug of compound 6. Compound 9 is the prodrug of compound 8. Thus, PK data of active compounds, i.e. compounds 1, 4, 6, 8, were detected after administration, respectively.

[6] = In vivo pharmacokinetics test on rat, P.O (lavage); details: plasma, po, male SD rat, Compound 3 itself detected
Procedure: as §5, §6
P.O representing administration by lavage
as §7, §8, §9, §10, §11
Calculation Formula Absolute bioavailability F %=[AUC]INF(PO)*Dose(IV)/[AUC]INF(IV)*Dose(PO)

[7] = system: methicillin-sensitive (MSSE); assay: In vitro antibacterial activity, standard agar dilution method, MSSE; assay type: cell-based, Staphylococcus epidermidis; details: clinical strains
Excerpt: as §1, §2, §3, §4

SMILES	antibacterial activity MSSA [1] [µg/mL]	antibacterial activity MRSE [2] [µg/mL]	antibacterial activity MSSE [3] [µg/mL]	antibacterial activity Streptococcus pneumoniae (streptococcus pneumoniae) [µg/mL]	antibacterial activity Enterococcus faecalis (Enterococcus faecalis) [µg/mL]	antibacterial activity MRSA [4] [µg/mL]	antibacterial activity Enterococcus faecium (Enterococcus faecium) [µg/mL]	AUC(0-inf) [5] [ng·h/mL]	clearance [5] [mL/min/kg]	half-life [5] [h]	Vd ([5]; read-out: Vss) [L/kg]	bioavailability ([6]; P.O 1 mg/kg vs I.V 0.75 mg/kg, read-out: F % (absolute bioavailability)) [%]	AUC(0-inf) ([6]; P.O, 1 mg/kg) [ng·h/mL]	Cmax ([6]; P.O, 1 mg/kg) [ng/mL]	Tmax ([6]; P.O, 1 mg/kg) [h]	half-life ([6]; P.O, 1 mg/kg) [h]	antibacterial activity MSSE [7] [µg/mL]
CC(=O)NC[C@H]1CN(c2ccc(N3CCOCC3)c(F)c2)C(=O)O1 [linezolid, Linezolid, reference compound]	2	2	2	2	4	4	4										
Cn1nnnc1Nc1ccc(-c2ccc(N3C[C@H](CO)OC3=O)cc2F)cn1 [Compound 4, (R)-3-(3-fluoro-4-(6-((1-methyl-1H-tetrazol-5-yl)amino)pyridin-3-yl)phenyl)-5-(hydroxylmethyl)oxazolidin-2-one]	0.25	0.125	0.125	1	0.25	0.25	0.25										
Cn1cc(Nc2ccc(-c3ccc(N4C[C@H](CO)OC4=O)cc3F)cn2)nn1 [Compound 11, (R)-3-(3-fluoro-4-(6-((1-methyl-1H-1,2,3-triazol-4-yl)amino)pyridin-3-yl)phenyl)-5-(hydroxylmethyl)oxazolidin-2-one]	1	1	0.5	1	2	1	2										
CN(c1ccc(-c2ccc(N3C[C@H](CO)OC3=O)cc2F)cn1)c1nnnn1C [Compound 6, (R)-3-(3-fluoro-4-(6-(methyl(1-methyl-1H-tetrazol-5-yl)amino)pyridin-3-yl)phenyl)-5-(hydroxylmethyl)oxazolidin-2-one]	0.5	0.5	0.5	0.5	1	0.5	1										
Cn1nnc(Nc2ccc(-c3ccc(N4C[C@H](CO)OC4=O)cc3F)cn2)n1 [Compound 1, (R)-3-(3-fluoro-4-(6-((2-methyl-2H-tetrazol-5-yl)amino)pyridin-3-yl)phenyl)-5-(hydroxylmethyl)oxazolidin-2-one]	1	0.5	0.5	0.5	1	1	1										
CC(=O)NC[C@H]1CN(c2ccc(-c3ccc(Nc4nnn(C)n4)nc3)c(F)c2)C(=O)O1 [Compound 3, (S)-N-((3-(3-fluoro-4-(6-((2-methyl-2H-tetrazol-5-yl)amino)pyridin-3-yl)phenyl)-2-oxooxazolidin-5-yl)methyl)acetamide]	0.5	0.25		0.25	0.25	1	0.25	11600	1.17	5.29	0.37	45.5	7030	614	4	5.55	0.25
CN(c1ccc(-c2ccc(N3C[C@H](CO)OC3=O)cc2F)cn1)c1nnn(C)n1 [Compound 8, (R)-3-(3-fluoro-4-(6-(methyl(2-methyl-2H-tetrazol-5-yl)amino)pyridin-3-yl)phenyl)-5-(hydroxylmethyl)oxazolidin-2-one]	1	0.5	0.5	0.5	1	1	1										
